# Assay results: patent publication US20240199546A1, “INHIBITORS OF SOLUTE CARRIER FAMILY 6A MEMBER 19 (SLC6A19) AND METHODS OF USE THEREOF” (Maze Therapeutics, Inc., priority 2022, published 2024)
# pIC50: −log10 of the molar value.
# Assays:
# human SLC6A19 and TMEM27 [1] = molecular target: T1, human SLC6A19 and TMEM27 (Homo sapiens, UniProt Q695T7); experiment: 13C6,15N-isoleucine uptake in CHO cells with doxycycline-inducible expression of human SLC6A19 and TMEM27, RapidFire mass spectrometry (Example B-2); type: cell-based; conditions: read-out: SLC6A19_RapidFire Uptake Assay IC50
# T1 construct: expressed in transfected cells
# T1 sequence (Q695T7 1-634): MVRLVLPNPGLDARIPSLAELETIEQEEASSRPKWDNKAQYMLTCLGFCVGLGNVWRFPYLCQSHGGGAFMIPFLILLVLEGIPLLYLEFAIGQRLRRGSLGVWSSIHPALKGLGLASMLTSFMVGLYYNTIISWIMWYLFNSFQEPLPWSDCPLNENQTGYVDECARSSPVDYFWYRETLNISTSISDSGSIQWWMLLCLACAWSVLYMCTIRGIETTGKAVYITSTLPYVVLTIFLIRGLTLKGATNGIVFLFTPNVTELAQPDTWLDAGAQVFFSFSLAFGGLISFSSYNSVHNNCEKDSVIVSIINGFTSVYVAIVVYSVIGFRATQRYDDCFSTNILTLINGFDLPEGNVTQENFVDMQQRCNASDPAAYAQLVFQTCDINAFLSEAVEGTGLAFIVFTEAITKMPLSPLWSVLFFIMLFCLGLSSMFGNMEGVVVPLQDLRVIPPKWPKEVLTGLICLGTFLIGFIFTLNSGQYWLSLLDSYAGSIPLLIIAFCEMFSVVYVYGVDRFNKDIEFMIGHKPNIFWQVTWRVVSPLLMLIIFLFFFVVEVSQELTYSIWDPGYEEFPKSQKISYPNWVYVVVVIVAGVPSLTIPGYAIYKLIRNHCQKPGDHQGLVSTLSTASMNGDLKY
# T1 sequence (Q9HBJ8 15-222 partner): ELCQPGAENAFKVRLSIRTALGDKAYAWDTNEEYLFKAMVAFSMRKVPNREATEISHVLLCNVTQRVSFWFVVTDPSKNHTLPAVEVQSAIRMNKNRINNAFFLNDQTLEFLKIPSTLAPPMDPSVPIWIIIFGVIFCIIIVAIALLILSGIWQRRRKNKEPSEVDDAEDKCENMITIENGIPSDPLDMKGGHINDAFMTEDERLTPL
# Procedure, shortened: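 Read-out is RapidFire mass-spec peak area of 13C6,15N-isoleucine taken up over 20 min at 37 °C, after 20 min compound pre-exposure in pH 7.2 HEPES-buffered saline. Cells: doxycycline-induced CHO co-expressing human SLC6A19 and TMEM27; compounds as duplicate 10-point 2-fold dilutions, positive control setting 0% activity.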
# human SLC6A19 and TMEM27 [2] = molecular target: T1, human SLC6A19 and TMEM27; experiment: Radiolabelled (3H) leucine uptake in CHO cells with doxycycline-inducible expression of human SLC6A19 and TMEM27 (Example B-1); type: cell-based; conditions: CHO cells with doxycycline-inducible expression of human SLC6A19 and TMEM27, read-out: SLC6A19_Radioligand Uptake Assay IC50
# Procedure, shortened: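 CHO cells were induced with doxycycline for 18 h at 37 °C, washed in HBSS, then exposed to compounds for 1 h: 8-point, 3-fold dilutions in duplicate, 0.5% DMSO final. Uptake measured by scintillation counting after 2 h shaking. Activity normalized with positive control as 0% and DMSO as 100%.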
Compound,pIC50 (human SLC6A19 and TMEM27 [1]),pIC50 (human SLC6A19 and TMEM27 [2])
"Cn1ncc(COc2cc3[nH]c(CNC(=O)C4CC4)cc3cc2Cl)n1 [Compound 498, N-((5-chloro-6-((2-methyl-2H-1,2,3-triazol-4-yl)methoxy)-1H-indol-2-yl)methyl)cyclopropanecarboxamide]",7.04,6.80
"CC1(C(=O)NCc2cc3cc(Cl)c(OCc4cccc(F)n4)cc3[nH]2)CC1 [Compound 32, N-((5-chloro-6-((6-fluoropyridin-2-yl)methoxy)-1H-indol-2-yl)methyl)-1-methylcyclopropane-1-carboxamide]",7.24,6.88
"Cc1cc(COc2cc3[nH]c(CNC(=O)C4(C(F)(F)F)CC4)cc3cc2Cl)no1 [Compound 125, N-((5-chloro-6-((5-methylisoxazol-3-yl)methoxy)-1H-indol-2-yl)methyl)-1-(trifluoromethyl)cyclopropane-1-carboxamide]",6.84,6.70
"Cc1coc(COc2cc3[nH]c(CNC(=O)N4CCCC4)cc3cc2Cl)n1 [Compound 426, N-((5-chloro-6-((4-methyloxazol-2-yl)methoxy)-1H-indol-2-yl)methyl)pyrrolidine-1-carboxamide]",6.66,6.45
"CC1CCCN1C(=O)NCc1cc2ccc(OCc3ccon3)cc2[nH]1 (stereo not shown) [Compound 124, N-((6-(isoxazol-3-ylmethoxy)-1H-indol-2-yl)methyl)-2-methylpyrrolidine-1-carboxamide]",5.88,6.35
"Cc1cc(COc2cc3[nH]c(CNC(=O)N4CCCC4)cc3cc2Cl)on1 [Compound 83, N-((5-chloro-6-((3-methylisoxazol-5-yl)methoxy)-1H-indol-2-yl)methyl)pyrrolidine-1-carboxamide]",7.30,7.00
"O=C(NCc1cc2cc(F)c(OCc3ccon3)cc2[nH]1)C1(F)CC1 [Compound 233, 1-fluoro-N-((5-fluoro-6-(isoxazol-3-ylmethoxy)-1H-indol-2-yl)methyl)cyclopropane-1-carboxamide]",7.24,6.95
"O=C(NCc1cc2cc(Cl)c(OCc3cscn3)cc2[nH]1)N1CCC1 [Compound 81, N-((5-chloro-6-(thiazol-4-ylmethoxy)-1H-indol-2-yl)methyl)azetidine-1-carboxamide]",6.78,6.82
"CC1(C(=O)NCc2cc3cc(Cl)c(OCc4ccc(F)cn4)cc3[nH]2)CC1 [Compound 28, N-((5-chloro-6-((5-fluoropyridin-2-yl)methoxy)-1H-indol-2-yl)methyl)-1-methylcyclopropane-1-carboxamide]",7.10,6.77
"COC(=O)NCc1cc2cc(Cl)c(OCc3cscn3)cc2[nH]1 [Compound 624, methyl ((5-chloro-6-(thiazol-4-ylmethoxy)-1H-indol-2-yl)methyl)carbamate]",7.51,6.98
"O=C(NCc1cc2cc(Cl)c(OCc3cccc(F)n3)cc2[nH]1)N1CCC1 [Compound 402, N-((5-chloro-6-((6-fluoropyridin-2-yl)methoxy)-1H-indol-2-yl)methyl)azetidine-1-carboxamide]",6.76,6.54
Cc1cc(CCc2cc3[nH]c(CNC(=O)C4(C)CC4)cc3cc2Cl)no1 [Compound 148],7.51,6.81
"Cc1cc2c(Cl)c(CNC(=O)N3CCC3)[nH]c2cc1OCc1cscn1 [Compound 475, N-((3-chloro-5-methyl-6-(thiazol-4-ylmethoxy)-1H-indol-2-yl)methyl)azetidine-1-carboxamide]",6.86,6.36
"O=C(NCc1cc2cc(F)c(OCc3cscn3)cc2[nH]1)N1CCCC1 [Compound 114, N-((5-fluoro-6-(thiazol-4-ylmethoxy)-1H-indol-2-yl)methyl)pyrrolidine-1-carboxamide]",6.80,6.74
"Cc1cc(COc2cc3[nH]c(CNC(=O)C4(C)CC4)cc3cc2Cl)no1 [Compound 45, N-((5-chloro-6-((5-methylisoxazol-3-yl)methoxy)-1H-indol-2-yl)methyl)-1-methylcyclopropane-1-carboxamide]",7.12,6.74
"CN(C(=O)NCc1cc2cc(Cl)c(OCc3ccon3)cc2[nH]1)C1CC1 [Compound 379, 3-((5-chloro-6-(isoxazol-3-ylmethoxy)-1H-indol-2-yl)methyl)-1-cyclopropyl-1-methylurea]",6.62,6.42
"Cc1cc2cc(CNC(=O)N3CCCC3)[nH]c2cc1OCc1cscn1 [Compound 531, N-((5-methyl-6-(thiazol-4-ylmethoxy)-1H-indol-2-yl)methyl)pyrrolidine-1-carboxamide]",6.79,6.53
"CN(Cc1cn[nH]c1)C(=O)NCc1cc2ccc(OCc3cscn3)cc2[nH]1 [Compound 628, 1-((1H-pyrazol-4-yl)methyl)-1-methyl-3-((6-(thiazol-4-ylmethoxy)-1H-indol-2-yl)methyl)urea]",5.52,5.57
"O=C(NCc1cc2cc(F)c(OCc3cccc(F)n3)cc2[nH]1)C1CC1 [Compound 497, N-((5-fluoro-6-((6-fluoropyridin-2-yl)methoxy)-1H-indol-2-yl)methyl)cyclopropanecarboxamide]",6.74,6.71
"Cn1ncc(COc2cc3[nH]c(CNC(=O)N4CCC4)cc3cc2F)n1 [Compound 409, N-((5-fluoro-6-((2-methyl-2H-1,2,3-triazol-4-yl)methoxy)-1H-indol-2-yl)methyl)azetidine-1-carboxamide]",5.64,5.93
"CC1(C(=O)NCc2cc3cc(Cl)c(OCc4ccno4)cc3[nH]2)CC1 [Compound 326, N-((5-chloro-6-(isoxazol-5-ylmethoxy)-1H-indol-2-yl)methyl)-1-methylcyclopropane-1-carboxamide]",6.90,6.71
"CC1(C(=O)NCc2cc3cc(CC(F)(F)F)c(OCc4ccon4)cc3[nH]2)CC1 [Compound 649, N-((6-(isoxazol-3-ylmethoxy)-5-(2,2,2-trifluoroethyl)-1H-indol-2-yl)methyl)-1-methylcyclopropane-1-carboxamide]",6.66,6.49
"CC1(C(=O)NCc2cc3cc(F)c(NCc4ccon4)cc3[nH]2)CC1 [Compound 524, N-((5-fluoro-6-((isoxazol-3-ylmethyl)amino)-1H-indol-2-yl)methyl)-1-methylcyclopropane-1-carboxamide]",6.24,6.40
"Cc1nc(COc2cc3[nH]c(CNC(=O)C4CC4)cc3cc2F)co1 [Compound 549, N-((5-fluoro-6-((2-methyloxazol-4-yl)methoxy)-1H-indol-2-yl)methyl)cyclopropanecarboxamide]",6.08,6.37
"CC1(C(=O)NCc2cc3cc(Cl)c(OCc4cncc(F)c4)cc3[nH]2)CC1 [Compound 36, N-((5-chloro-6-((5-fluoropyridin-3-yl)methoxy)-1H-indol-2-yl)methyl)-1-methylcyclopropane-1-carboxamide]",6.50,6.15
"Cc1cc2cc(CNC(=O)C3(C)CC3)[nH]c2cc1OCc1cscn1 [Compound 11, 1-methyl-N-((5-methyl-6-(thiazol-4-ylmethoxy)-1H-indol-2-yl)methyl)cyclopropane-1-carboxamide]",7.12,6.93
